Test results reported in the Biogen ADME set (Fang et al. 2023).
In brackets after ≈: the same amount, converted by molar mass.

Conditions: for aqueous solubility: pH 6.8

| SMILES | MDR1-MDCK efflux ratio | fraction unbound, human plasma | fraction unbound, rat plasma | intrinsic clearance, human liver microsomes | intrinsic clearance, rat liver microsomes | aqueous solubility |
| --- | --- | --- | --- | --- | --- | --- |
| CN(c1ncc(F)cn1)[C@H]1CCCNC1 | 0.438 | 1 | 1 | ≤ 4.74 mL/min/kg | ≤ 10.7 mL/min/kg |  |
| COc1ccc(-c2nn(C)c3ccccc23)c(OC)c1OC | 0.515 |  |  | 95.4 mL/min/kg | 1270 mL/min/kg |  |
| COc1cccc([C@@H](C)n2cnc3cn(C)nc3c2=O)c1 | 1.44 |  |  | ≤ 4.74 mL/min/kg | 67.2 mL/min/kg |  |
| CC(=O)N[C@H]1CC2(CCN(C(=O)COc3cc(C)c(Cl)c(C)c3)CC2)OC[C@]1(C)O | 42.6 |  |  | 24.4 mL/min/kg | 166 mL/min/kg |  |
| O=C(C1CCCN(Cc2cc3c(cc2O)OCO3)C1)N1CCOCC1 (centres undefined) | 1.94 |  |  | 5.4 mL/min/kg | 52.6 mL/min/kg | 55.8 µg/mL (≈ 160 µM) |
| Fc1ccc(-n2cc(/C=C/c3ccnnc3)nn2)cc1Cl | 0.642 |  |  |  |  | 0.27 µg/mL (≈ 0.895 µM) |
| CC(C)(O)[C@H]1O[C@H]2CC[C@@]3(C)[C@@](O)(CC[C@H]4Cc5c([nH]c6ccccc56)[C@@]43C)C2=CC1=O |  |  |  |  |  | 0.99 µg/mL (≈ 2.27 µM) |
| COc1cc2c(cc1OC)CN(C(=O)C1CCCN(S(=O)(=O)c3cccs3)C1)CC2 (centres undefined) | 9.7 |  |  | 68.3 mL/min/kg | 707 mL/min/kg | 22.1 µg/mL (≈ 49 µM) |
| CCc1cnc(C)nc1-c1ccc(-c2ccn[nH]2)cc1 | 0.85 |  |  | ≤ 4.74 mL/min/kg | 75 mL/min/kg | 20.7 µg/mL (≈ 78.5 µM) |
| CCc1c(N)cnn1-c1ccccc1C | 0.677 |  |  | 8.11 mL/min/kg | 165 mL/min/kg | 37.1 µg/mL (≈ 185 µM) |
| Cc1noc(CCNc2ncnc3ccccc23)n1 | 0.926 |  |  | ≤ 4.74 mL/min/kg | 94.4 mL/min/kg | 38.2 µg/mL (≈ 149 µM) |
| N#Cc1cccc(CN2CCN(CCO)CC2)c1 |  |  |  | 6.28 mL/min/kg | 126 mL/min/kg | 29.3 µg/mL (≈ 119 µM) |
| Cc1ccccc1N1C(=O)c2ccc(C(=O)NC(C)(C)C)cc2C1=O |  |  |  |  |  | 49.9 µg/mL (≈ 148 µM) |
| COc1ccc(CN[C@@H]2CCC[C@H]2Cc2cc(C)no2)cc1OC | 3.3 |  |  | 36.9 mL/min/kg | 1120 mL/min/kg |  |
| CN(C[C@@H]1COCCO1)S(=O)(=O)Nc1ccc2ccc3ncc(-c4cnn(C)c4)cc3c(=O)c2c1 | 15.5 |  |  | 44.3 mL/min/kg | 219 mL/min/kg | 3.36 µg/mL (≈ 6.78 µM) |
| CNCCN1CCC(OCc2ccccc2)CC1 |  |  |  | 46.5 mL/min/kg | 143 mL/min/kg | 55 µg/mL (≈ 222 µM) |
| N=C(N)N/N=C/c1c(Cl)cccc1Cl | 0.543 |  |  | ≤ 4.74 mL/min/kg | 77 mL/min/kg | 50.3 µg/mL (≈ 218 µM) |
| COc1ccc(-c2nn3c(-c4ccco4)nnc3c3ccccc23)cc1 | 0.526 |  |  |  |  | 0.18 µg/mL (≈ 0.526 µM) |
| CN(Cc1c(F)cccc1Cl)C(=O)c1ccc(-n2ccnc2)nc1 | 0.625 |  |  | 26.3 mL/min/kg | 1660 mL/min/kg | 54.1 µg/mL (≈ 157 µM) |
| Cc1ccc(F)cc1NC(=O)c1cnc2onc(C(C)C)c2c1 | 0.649 |  |  | 29.3 mL/min/kg | 217 mL/min/kg | 42.4 µg/mL (≈ 135 µM) |
| C#CCNC(=O)Cc1coc(-c2ccccc2)n1 | 0.719 |  |  | 26.9 mL/min/kg | 142 mL/min/kg |  |
| CN1CCN(S(=O)(=O)c2ccc(C(F)(F)F)nc2)C(C)(C)C1 | 0.642 |  |  | 42.2 mL/min/kg | 661 mL/min/kg |  |
| Cc1nc(CC2CCN(S(=O)(=O)c3cn(C)cn3)CC2)cc(NC2CCCC2)n1 | 37.4 |  |  | 9.96 mL/min/kg | 90.9 mL/min/kg | 59.5 µg/mL (≈ 142 µM) |
| CN(C)c1ccc2c(c1)Sc1cc(N(C)C)ccc1N2 | 6.59 |  |  | 31.8 mL/min/kg | 153 mL/min/kg |  |
| Cc1c(C(=O)NCC2CCSCC2)nnn1-c1cccc2cnccc12 |  |  |  | 177 mL/min/kg | 1770 mL/min/kg |  |
| Cc1nc(-c2cccnc2)sc1C(=O)Nc1ccccc1-c1cn2c(CN3CCOCC3)csc2n1 | 3.28 |  |  |  |  | 0.65 µg/mL (≈ 1.26 µM) |
| COc1cccc2c1OC(C)(C)[C@@H]1C[C@H]3CNCC[C@H]3O[C@@H]21 | 17.1 |  |  | ≤ 4.74 mL/min/kg | 51.5 mL/min/kg | 53.4 µg/mL (≈ 176 µM) |

Continued, values first:

| MDR1-MDCK efflux ratio | fraction unbound, human plasma | fraction unbound, rat plasma | intrinsic clearance, human liver microsomes | intrinsic clearance, rat liver microsomes | aqueous solubility | SMILES |
| --- | --- | --- | --- | --- | --- | --- |
| 1.08 |  |  | 5.37 mL/min/kg | 26.5 mL/min/kg | 32.8 µg/mL (≈ 152 µM) | COc1ccc(C)cc1-c1cccnc1O |
|  |  |  | ≤ 4.74 mL/min/kg | ≤ 10.7 mL/min/kg |  | COc1cc2cc(N)c(C3CCNCC3)nc2cc1OC |
| 3.34 |  |  | 19.2 mL/min/kg | 51.7 mL/min/kg | 8.44 µg/mL (≈ 22.4 µM) | COc1ccc(CN2CCc3nc(-c4cccnc4)nc(O)c3C2)c(C)c1C |
| 3.21 |  |  | ≤ 4.74 mL/min/kg | 80.5 mL/min/kg | 18.6 µg/mL (≈ 72.7 µM) | c1cc2cc[nH]c2c(CC2CN(C3CCCC3)C2)n1 |
| 2.59 |  |  | 25.3 mL/min/kg | 456 mL/min/kg | 12.4 µg/mL (≈ 38.8 µM) | Cc1cc2ccccc2n1CC(=O)N1CCc2ccc(O)cc2C1 |
| 2.66 |  |  | 23.6 mL/min/kg | 746 mL/min/kg | 48.1 µg/mL (≈ 154 µM) | CN(C)c1ccc2c(c1)OCCN2C(=O)NCc1cccnc1 |
|  |  |  | 11.1 mL/min/kg | 488 mL/min/kg |  | O=C1OCCN1CCN1CCC(c2cc3ccccc3[nH]2)CC1 |
| 1.65 |  |  |  |  | 0.28 µg/mL (≈ 0.712 µM) | COc1cc(OC)cc(-n2c(S)nnc2COc2cccc3ccccc23)c1 |
|  |  |  | 127 mL/min/kg | 87.3 mL/min/kg |  | CN(C/C=C/C(=O)N1CCC[C@@H](n2nc(-c3ccc(Oc4ccccc4)cc3)c3c(N)ncnc32)C1)CCCCNC(=O)CCCC(=O)NCCCOCCOCCOCCCNC(=O)CCCC[C@@H]1SC[C@@H]2NC(=O)N[C@@H]21 |
| 3.17 |  |  | 990 mL/min/kg | 3840 mL/min/kg |  | O=C(c1ccccc1N1CCOCC1)N(Cc1ccccn1)C1CCCCC1 |
|  |  |  | 32.1 mL/min/kg |  |  | Cc1cccc(/C=N/Nc2cc(N3CCOCC3)n3nc(-c4ccncc4)cc3n2)c1 |
| 4.41 |  |  | 7.26 mL/min/kg | 68.4 mL/min/kg | 50.2 µg/mL (≈ 188 µM) | N#Cc1ccc2nc([C@H]3CCN(C4CCC4)C3)[nH]c2c1 |
|  |  |  | 57 mL/min/kg | 960 mL/min/kg | 49.5 µg/mL (≈ 162 µM) | CSCC(=O)N1CCc2[nH]nc(-c3cccc(F)c3)c2C1 |
| 50.5 |  |  |  |  | 0.3 µg/mL (≈ 0.572 µM) | C=CC(=O)Nc1cc(-n2c(=O)ccc3cnc4ccc(-c5ccc(NS(C)(=O)=O)cc5)cc4c32)ccc1C |
| 1.32 | 0.682 |  | ≤ 4.74 mL/min/kg |  |  | CC1CC(N)CCN1C(=O)c1cc(N2CCNC2=O)c(F)cc1F (centres undefined) |
| 2.69 |  |  | 27.3 mL/min/kg | 374 mL/min/kg | 33.2 µg/mL (≈ 95 µM) | Cn1cc(CN2CCN(c3ccccc3O)CC2)c(-c2ccncc2)n1 |

| MDR1-MDCK efflux ratio | fraction unbound, human plasma | fraction unbound, rat plasma | intrinsic clearance, human liver microsomes | intrinsic clearance, rat liver microsomes | aqueous solubility | SMILES |
| --- | --- | --- | --- | --- | --- | --- |
| 0.417 |  |  | ≤ 4.74 mL/min/kg | ≤ 10.7 mL/min/kg |  | Cc1cc(-n2ccnc2)ccc1C(=O)O |
|  |  |  | 6.7 mL/min/kg | ≤ 10.7 mL/min/kg | 41.2 µg/mL (≈ 185 µM) | Cc1cnn(Cc2cc(F)ccc2F)c1N |
| 0.841 |  |  | 39.6 mL/min/kg | 1750 mL/min/kg |  | CSc1ccc(C)c(C(=O)NCCN2CCC(C)CC2)c1 |
|  |  |  | ≤ 4.74 mL/min/kg | 162 mL/min/kg | 32.2 µg/mL (≈ 108 µM) | CC1CC1C(=O)N1CCC(n2c(=O)[nH]c3ccccc32)CC1 (centres undefined) |
| 1.68 |  |  | 37.6 mL/min/kg | 394 mL/min/kg | 51.6 µg/mL (≈ 156 µM) | CCOC(=O)N1CCN(C(=O)Nc2cccc3c2CCCC3)CC1 |
|  |  |  | 68.6 mL/min/kg | 1020 mL/min/kg |  | O=C(COCc1nc2ccccc2s1)N1CCC(n2c(=O)[nH]c3ccccc32)CC1 |
|  |  |  | ≤ 4.74 mL/min/kg | 141 mL/min/kg | 52.2 µg/mL (≈ 231 µM) | c1cc(CC2CCNCC2)c2cccnc2c1 |
| 0.192 |  |  |  |  | 0.7 µg/mL (≈ 2.95 µM) | Oc1cccc(/C=C/c2nc3ccccc3o2)c1 |
| 0.708 |  |  | 1150 mL/min/kg | 2000 mL/min/kg |  | COC(=O)c1cccc2c1CCCN2C(=O)c1ccc(F)cc1F |
| 0.661 |  |  | ≤ 4.74 mL/min/kg | ≤ 10.7 mL/min/kg | 32.2 µg/mL (≈ 136 µM) | CS(=O)(=O)Cc1ccn(-c2ccccc2)n1 |
| 0.607 |  |  | 16 mL/min/kg | 516 mL/min/kg | 43.1 µg/mL (≈ 171 µM) | Cc1c(C)n(Cc2ccccc2)c2ncnc(N)c12 |
| 3.75 |  |  | 8.9 mL/min/kg | 61.5 mL/min/kg |  | Cc1ncsc1CNc1nnc(-c2ccncc2)o1 |
| 0.749 |  |  | ≤ 4.74 mL/min/kg | 107 mL/min/kg |  | COc1cc(OC)cc(-c2c(C)ncnc2OC)c1 |
| 0.597 |  |  | 40.4 mL/min/kg | 972 mL/min/kg | 69.9 µg/mL (≈ 296 µM) | CN(CCC1CCCCC1)C(=O)c1ccon1 |
|  |  |  | ≤ 4.74 mL/min/kg | ≤ 10.7 mL/min/kg |  | O=C(NC[C@]1(O)CCN(Cc2cccs2)C[C@H]1O)c1c[nH]cn1 |
| 1.31 |  |  | ≤ 4.74 mL/min/kg | ≤ 10.7 mL/min/kg | 54.4 µg/mL (≈ 203 µM) | O=C1CCCN1c1ccc(NCc2ccccn2)nc1 |
